PubChem BioAssay (NCI)
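GI50 = concentration required for 50% inhibition of growth. At the TGI there is no net growth.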

Columns and labels:
Assay in all cases: growth of human tumour cells (NCI), 384-well format
786-0 renal = tested on: 786-0 renal
A498 renal = tested on: A498 renal
A549 NSCLC = tested on: A549 NSCLC
BT-549 breast = tested on: BT-549 breast
CAKI-1 renal = tested on: CAKI-1 renal
CCRF-CEM leukemia = tested on: CCRF-CEM leukemia
COLO 205 colon = tested on: COLO 205 colon
DU-145 prostate = tested on: DU-145 prostate
HCC-2998 colon = tested on: HCC-2998 colon
HCT-116 colon = tested on: HCT-116 colon
HCT-15 colon = tested on: HCT-15 colon
HOP-62 NSCLC = tested on: HOP-62 NSCLC
HS 578T breast = tested on: HS 578T breast
HT29 colon = tested on: HT29 colon
IGROV1 ovarian = tested on: IGROV1 ovarian
KM12 colon = tested on: KM12 colon
M14 melanoma = tested on: M14 melanoma
MALME-3M melanoma = tested on: MALME-3M melanoma
MCF7 breast = tested on: MCF7 breast
MDA-MB-231 breast = tested on: MDA-MB-231 breast
MDA-MB-468 breast = tested on: MDA-MB-468 breast
MOLT-4 leukemia = tested on: MOLT-4 leukemia
NCI-H226 lung = tested on: NCI-H226 lung
NCI-H23 lung = tested on: NCI-H23 lung
NCI-H322M lung = tested on: NCI-H322M lung
NCI-H460 NSCLC = tested on: NCI-H460 NSCLC
NCI-H522 lung = tested on: NCI-H522 lung
NCI/ADR-RES ovarian = tested on: NCI/ADR-RES ovarian
OVCAR-3 ovarian = tested on: OVCAR-3 ovarian
OVCAR-4 ovarian = tested on: OVCAR-4 ovarian
OVCAR-5 ovarian = tested on: OVCAR-5 ovarian
OVCAR-8 ovarian = tested on: OVCAR-8 ovarian
PC-3 prostate = tested on: PC-3 prostate
RPMI-8226 leukemia = tested on: RPMI-8226 leukemia
SF-295 CNS = tested on: SF-295 CNS
SF-539 CNS = tested on: SF-539 CNS
SK-MEL-2 melanoma = tested on: SK-MEL-2 melanoma
SK-MEL-28 melanoma = tested on: SK-MEL-28 melanoma
SK-MEL-5 melanoma = tested on: SK-MEL-5 melanoma
SN12C renal = tested on: SN12C renal
SNB-19 CNS = tested on: SNB-19 CNS
SNB-75 CNS = tested on: SNB-75 CNS
SR leukemia = tested on: SR leukemia
SW-620 colon = tested on: SW-620 colon
T-47D breast = tested on: T-47D breast
UACC-257 melanoma = tested on: UACC-257 melanoma
UACC-62 melanoma = tested on: UACC-62 melanoma

Cc1cc(-c2nc(C(=O)Nc3cc4oc(N5CCOCC5)nc4nc3N3CC[C@@H](O)C3)co2)ccn1
GI50 (786-0 renal): 43.4 µM
TGI (786-0 renal): > 100 µM
GI50 (A498 renal): 12.3 µM
TGI (A498 renal): > 100 µM
GI50 (A549 NSCLC): 32.3 µM
TGI (A549 NSCLC): > 100 µM
GI50 (BT-549 breast): 16.3 µM
TGI (BT-549 breast): 82.1 µM
GI50 (CAKI-1 renal): 8.01 µM
TGI (CAKI-1 renal): 38.3 µM
GI50 (CCRF-CEM leukemia): 21.4 µM
TGI (CCRF-CEM leukemia): 62.2 µM
GI50 (COLO 205 colon): 20.4 µM
TGI (COLO 205 colon): 50.2 µM
GI50 (DU-145 prostate): 34.1 µM
TGI (DU-145 prostate): > 100 µM
GI50 (HCC-2998 colon): 21.2 µM
TGI (HCC-2998 colon): > 100 µM
GI50 (HCT-116 colon): 19.4 µM
TGI (HCT-116 colon): > 100 µM
GI50 (HCT-15 colon): 20.2 µM
TGI (HCT-15 colon): > 100 µM
GI50 (HOP-62 NSCLC): 15.3 µM
TGI (HOP-62 NSCLC): > 100 µM
GI50 (HS 578T breast): 2.37 µM
TGI (HS 578T breast): 23.4 µM
GI50 (HT29 colon): > 100 µM
TGI (HT29 colon): > 100 µM
GI50 (IGROV1 ovarian): 11.4 µM
TGI (IGROV1 ovarian): 35.6 µM
GI50 (KM12 colon): 0.424 µM
TGI (KM12 colon): > 100 µM
GI50 (M14 melanoma): 27.9 µM
TGI (M14 melanoma): > 100 µM
GI50 (MALME-3M melanoma): 19.4 µM
TGI (MALME-3M melanoma): > 100 µM
GI50 (MCF7 breast): 16.5 µM
TGI (MCF7 breast): > 100 µM
GI50 (MDA-MB-231 breast): 36.9 µM
TGI (MDA-MB-231 breast): > 100 µM
GI50 (MDA-MB-468 breast): 8.63 µM
TGI (MDA-MB-468 breast): 33.1 µM
GI50 (MOLT-4 leukemia): 13.2 µM
TGI (MOLT-4 leukemia): 26.6 µM
GI50 (NCI-H226 lung): 81.2 µM
TGI (NCI-H226 lung): > 100 µM
GI50 (NCI-H23 lung): 13.1 µM
TGI (NCI-H23 lung): 47.5 µM
GI50 (NCI-H322M lung): 30.1 µM
TGI (NCI-H322M lung): > 100 µM
GI50 (NCI-H460 NSCLC): 29.8 µM
TGI (NCI-H460 NSCLC): > 100 µM
GI50 (NCI-H522 lung): 4.32 µM
TGI (NCI-H522 lung): 22.7 µM
GI50 (NCI/ADR-RES ovarian): > 100 µM
TGI (NCI/ADR-RES ovarian): > 100 µM
GI50 (OVCAR-3 ovarian): 13.3 µM
TGI (OVCAR-3 ovarian): 42 µM
GI50 (OVCAR-4 ovarian): 36.9 µM
TGI (OVCAR-4 ovarian): > 100 µM
GI50 (OVCAR-5 ovarian): 46 µM
TGI (OVCAR-5 ovarian): > 100 µM
GI50 (OVCAR-8 ovarian): 38.1 µM
TGI (OVCAR-8 ovarian): > 100 µM
GI50 (PC-3 prostate): 35.8 µM
TGI (PC-3 prostate): > 100 µM
GI50 (RPMI-8226 leukemia): 15.5 µM
TGI (RPMI-8226 leukemia): 39.4 µM
GI50 (SF-295 CNS): 53.7 µM
TGI (SF-295 CNS): > 100 µM
GI50 (SF-539 CNS): 23.2 µM
TGI (SF-539 CNS): > 100 µM
GI50 (SK-MEL-2 melanoma): 15.5 µM
TGI (SK-MEL-2 melanoma): 41.6 µM
GI50 (SK-MEL-28 melanoma): 49.6 µM
TGI (SK-MEL-28 melanoma): > 100 µM
GI50 (SK-MEL-5 melanoma): 11.6 µM
TGI (SK-MEL-5 melanoma): 59 µM
GI50 (SN12C renal): 21.5 µM
TGI (SN12C renal): > 100 µM
GI50 (SNB-19 CNS): 20.4 µM
TGI (SNB-19 CNS): > 100 µM
GI50 (SNB-75 CNS): 11.2 µM
TGI (SNB-75 CNS): 58.8 µM
GI50 (SR leukemia): 18 µM
TGI (SR leukemia): 37.3 µM
GI50 (SW-620 colon): 28.5 µM
TGI (SW-620 colon): > 100 µM
GI50 (T-47D breast): 11.8 µM
TGI (T-47D breast): 88 µM
GI50 (UACC-257 melanoma): 37.5 µM
TGI (UACC-257 melanoma): > 100 µM
GI50 (UACC-62 melanoma): 22.6 µM
TGI (UACC-62 melanoma): > 100 µM
